# Results as given in ChEMBL document CHEMBL1201862, “PubChem BioAssay data set” (2004).
#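 Cultured in 96-well plates, cells were exposed to test compound for 48 hours across five concentrations. Here, GI50 denotes the concentration required for 50% inhibition of growth.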 Activity calls are given as the source filed them. No stated cut-off is given here; in the data, active = GI50 up to about 1.1 µM and inactive = higher.
# What was measured:
# Experiment in all cases: NCI tumour cell line growth inhibition, 48 h
# SK-OV-3 = system: SK-OV-3
# SK-MEL-2 = system: SK-MEL-2
# SK-MEL-28 = system: SK-MEL-28
# HCT-116 = system: HCT-116
# UO-31 = system: UO-31
# SF-268 = system: SF-268
# TK-10 = system: TK-10
# SW-620 = system: SW-620
# CAKI-1 = system: CAKI-1
# NCI-H460 = system: NCI-H460
# KM12 = system: KM12
# BT-549 = system: BT-549
# SF-295 = system: SF-295
# ACHN = system: ACHN
# LOX IMVI = system: LOX IMVI
# HCC 2998 = system: HCC 2998
# RPMI-8226 = system: RPMI-8226
# UACC-257 = system: UACC-257
# A549 = system: A549
# OVCAR-8 = system: OVCAR-8
# OVCAR-3 = system: OVCAR-3
# SNB-75 = system: SNB-75
# MCF7 = system: MCF7
# Malme-3M = system: Malme-3M
# CCRF-CEM = system: CCRF-CEM
# M14 = system: M14
# MOLT-4 = system: MOLT-4
# MDA-MB-435 = system: MDA-MB-435
# EKVX = system: EKVX
# SN12C = system: SN12C
# MDA-MB-231 = system: MDA-MB-231
# SR = system: SR
# OVCAR-4 = system: OVCAR-4
# IGROV-1 = system: IGROV-1
# T47D = system: T47D
# HOP-62 = system: HOP-62
# MDA-N = system: MDA-N
# DU-145 = system: DU-145
# A498 = system: A498
# HCT-15 = system: HCT-15
# UACC-62 = system: UACC-62
# SNB-19 = system: SNB-19
# SF-539 = system: SF-539
# 786-0 = system: 786-0
# NCI-H522 = system: NCI-H522
# Hs-578T = system: Hs-578T
# U-251 = system: U-251
# OVCAR-5 = system: OVCAR-5
# RXF 393 = system: RXF 393
# SK-MEL-5 = system: SK-MEL-5
# NCI-H23 = system: NCI-H23
# NCI-H226 = system: NCI-H226
# PC-3 = system: PC-3
# NCI/ADR-RES = system: NCI/ADR-RES
# HT-29 = system: HT-29
# K562 = system: K562
# COLO 205 = system: COLO 205
# HOP-92 = system: HOP-92
# HL-60 = system: HL-60
compound,measurement,setting,value
CN(C)CCOc1ccc2[nH]c(C(=O)N3CC(CCl)c4ccc(N)cc43)cc2c1 (stereo not drawn),GI50,SK-OV-3,1.94 µM (inactive)
same,GI50,SK-MEL-2,0.0653 µM (active)
same,GI50,SK-MEL-28,0.126 µM (active)
same,GI50,HCT-116,0.0354 µM (active)
same,GI50,UO-31,0.065 µM (active)
same,GI50,SF-268,0.0375 µM (active)
same,GI50,TK-10,0.29 µM (active)
same,GI50,SW-620,0.121 µM (active)
same,GI50,CAKI-1,0.0489 µM (active)
same,GI50,NCI-H460,0.0273 µM (active)
same,GI50,KM12,0.0733 µM (active)
same,GI50,BT-549,0.192 µM (active)
same,GI50,SF-295,0.0885 µM (active)
same,GI50,ACHN,0.0281 µM (active)
same,GI50,LOX IMVI,0.0601 µM (active)
same,GI50,HCC 2998,0.0535 µM (active)
same,GI50,RPMI-8226,0.228 µM (active)
same,GI50,UACC-257,0.151 µM (active)
same,GI50,A549,0.0667 µM (active)
same,GI50,OVCAR-8,0.0912 µM (active)
same,GI50,OVCAR-3,0.0631 µM (active)
same,GI50,SNB-75,0.112 µM (active)
same,GI50,MCF7,0.0266 µM (active)
same,GI50,Malme-3M,0.164 µM (active)
same,GI50,CCRF-CEM,0.0381 µM (active)
same,GI50,M14,0.145 µM (active)
same,GI50,MOLT-4,< 0.01 µM (active)
same,GI50,MDA-MB-435,0.0871 µM (active)
same,GI50,EKVX,0.231 µM (active)
same,GI50,SN12C,0.108 µM (active)
same,GI50,MDA-MB-231,1.39 µM (inactive)
same,GI50,SR,< 0.0179 µM (active)
same,GI50,OVCAR-4,0.0703 µM (active)
same,GI50,IGROV-1,0.0395 µM (active)
same,GI50,T47D,0.0424 µM (active)
same,GI50,HOP-62,0.0356 µM (active)
same,GI50,MDA-N,0.143 µM (active)
same,GI50,DU-145,0.0323 µM (active)
same,GI50,A498,0.208 µM (active)
same,GI50,HCT-15,0.102 µM
same,GI50,UACC-62,0.0753 µM (active)
same,GI50,SNB-19,0.258 µM (active)
same,GI50,SF-539,0.385 µM (active)
same,GI50,786-0,0.0687 µM (active)
same,GI50,NCI-H522,0.0154 µM (active)
same,GI50,Hs-578T,0.176 µM (active)
same,GI50,U-251,0.0912 µM (active)
same,GI50,OVCAR-5,0.141 µM (active)
same,GI50,RXF 393,0.0182 µM (active)
same,GI50,SK-MEL-5,0.0451 µM (active)
same,GI50,NCI-H23,0.0562 µM (active)
same,GI50,NCI-H226,0.0776 µM (active)
same,GI50,PC-3,0.0459 µM (active)
same,GI50,NCI/ADR-RES,0.0933 µM (active)
same,GI50,HT-29,< 0.0358 µM (active)
same,GI50,K562,0.0533 µM (active)
same,GI50,COLO 205,0.083 µM (active)
same,GI50,HOP-92,0.36 µM (active)
COC(=O)C(CNC(=O)/C=C/c1ccc(OC)c(OC)c1)NC(=O)/C=C/c1ccc(OC)c(OC)c1 (stereo not drawn),GI50,SK-OV-3,> 100 µM (inactive)
same,GI50,SK-MEL-2,> 100 µM (inactive)
same,GI50,SK-MEL-28,67.3 µM (inactive)
same,GI50,HCT-116,> 100 µM (inactive)
same,GI50,UO-31,> 100 µM (inactive)
same,GI50,SF-268,> 100 µM (inactive)
same,GI50,TK-10,> 100 µM (inactive)
same,GI50,SW-620,> 100 µM (inactive)
same,GI50,CAKI-1,> 100 µM (inactive)
same,GI50,NCI-H460,45.2 µM (inactive)
same,GI50,KM12,> 100 µM (inactive)
same,GI50,BT-549,> 100 µM (inactive)
same,GI50,SF-295,> 100 µM (inactive)
same,GI50,ACHN,> 100 µM (inactive)
same,GI50,LOX IMVI,> 100 µM (inactive)
same,GI50,HCC 2998,50 µM (inactive)
same,GI50,RPMI-8226,> 100 µM (inactive)
same,GI50,UACC-257,> 100 µM (inactive)
same,GI50,A549,> 100 µM (inactive)
same,GI50,OVCAR-8,> 100 µM (inactive)
same,GI50,OVCAR-3,66.5 µM (inactive)
same,GI50,SNB-75,90.6 µM (inactive)
same,GI50,MCF7,> 100 µM (inactive)
same,GI50,Malme-3M,92.3 µM (inactive)
same,GI50,CCRF-CEM,> 100 µM (inactive)
same,GI50,M14,> 100 µM (inactive)
same,GI50,MOLT-4,77.1 µM (inactive)
same,GI50,MDA-MB-435,> 100 µM (inactive)
same,GI50,EKVX,> 100 µM (inactive)
same,GI50,SN12C,> 100 µM (inactive)
same,GI50,MDA-MB-231,> 100 µM (inactive)
same,GI50,SR,> 100 µM (inactive)
same,GI50,OVCAR-4,> 100 µM (inactive)
same,GI50,IGROV-1,> 100 µM (inactive)
same,GI50,T47D,75.7 µM (inactive)
same,GI50,HOP-62,> 100 µM (inactive)
same,GI50,MDA-N,> 100 µM (inactive)
same,GI50,DU-145,> 100 µM (inactive)
same,GI50,A498,> 100 µM (inactive)
same,GI50,HCT-15,> 100 µM
same,GI50,UACC-62,> 100 µM (inactive)
same,GI50,SNB-19,> 100 µM (inactive)
same,GI50,SF-539,> 100 µM (inactive)
same,GI50,786-0,> 100 µM (inactive)
same,GI50,NCI-H522,> 100 µM (inactive)
same,GI50,Hs-578T,> 100 µM (inactive)
same,GI50,U-251,> 100 µM (inactive)
same,GI50,OVCAR-5,> 100 µM (inactive)
same,GI50,RXF 393,> 100 µM (inactive)
same,GI50,SK-MEL-5,> 100 µM (inactive)
same,GI50,NCI-H23,> 100 µM (inactive)
same,GI50,NCI-H226,> 100 µM (inactive)
same,GI50,PC-3,> 100 µM (inactive)
same,GI50,NCI/ADR-RES,> 100 µM (inactive)
same,GI50,HT-29,> 100 µM (inactive)
same,GI50,K562,> 100 µM (inactive)
same,GI50,COLO 205,> 100 µM (inactive)
same,GI50,HOP-92,> 100 µM (inactive)
COC(=O)[C@@H]1CS(=O)(=O)C(C(C)C)N1C(C)=O (stereo partly drawn),GI50,SK-OV-3,> 100 µM (inactive)
same,GI50,SK-MEL-2,> 100 µM (inactive)
same,GI50,SK-MEL-28,> 100 µM (inactive)
same,GI50,HCT-116,> 100 µM (inactive)
same,GI50,UO-31,> 100 µM (inactive)
same,GI50,SF-268,> 100 µM (inactive)
same,GI50,TK-10,> 100 µM (inactive)
same,GI50,SW-620,> 100 µM (inactive)
same,GI50,CAKI-1,> 100 µM (inactive)
same,GI50,NCI-H460,> 100 µM (inactive)
same,GI50,KM12,> 100 µM (inactive)
same,GI50,BT-549,> 100 µM (inactive)
same,GI50,SF-295,> 100 µM (inactive)
same,GI50,ACHN,> 100 µM (inactive)
same,GI50,LOX IMVI,> 100 µM (inactive)
same,GI50,HCC 2998,> 100 µM (inactive)
same,GI50,RPMI-8226,> 100 µM (inactive)
same,GI50,UACC-257,> 100 µM (inactive)
same,GI50,A549,> 100 µM (inactive)
same,GI50,OVCAR-8,> 100 µM (inactive)
same,GI50,HL-60,7.19 µM (inactive)
same,GI50,OVCAR-3,> 100 µM (inactive)
same,GI50,SNB-75,> 100 µM (inactive)
same,GI50,MCF7,> 100 µM (inactive)
same,GI50,Malme-3M,> 100 µM (inactive)
same,GI50,M14,> 100 µM (inactive)
same,GI50,MDA-MB-435,> 100 µM (inactive)
same,GI50,EKVX,> 100 µM (inactive)
same,GI50,SN12C,> 100 µM (inactive)
same,GI50,MDA-MB-231,> 100 µM (inactive)
same,GI50,SR,> 100 µM (inactive)
same,GI50,OVCAR-4,> 100 µM (inactive)
same,GI50,IGROV-1,> 100 µM (inactive)
same,GI50,T47D,> 100 µM (inactive)
same,GI50,HOP-62,> 100 µM (inactive)
same,GI50,MDA-N,> 100 µM (inactive)
same,GI50,DU-145,> 100 µM (inactive)
same,GI50,A498,> 100 µM (inactive)
same,GI50,HCT-15,> 100 µM
same,GI50,UACC-62,> 100 µM (inactive)
same,GI50,SNB-19,> 100 µM (inactive)
same,GI50,SF-539,> 100 µM (inactive)
same,GI50,786-0,> 100 µM (inactive)
same,GI50,NCI-H522,> 100 µM (inactive)
same,GI50,Hs-578T,> 100 µM (inactive)
same,GI50,U-251,> 100 µM (inactive)
same,GI50,OVCAR-5,> 100 µM (inactive)
same,GI50,RXF 393,> 100 µM (inactive)
same,GI50,SK-MEL-5,> 100 µM (inactive)
same,GI50,NCI-H23,> 100 µM (inactive)
same,GI50,NCI-H226,> 100 µM (inactive)
same,GI50,PC-3,> 100 µM (inactive)
same,GI50,NCI/ADR-RES,> 100 µM (inactive)
same,GI50,HT-29,> 100 µM (inactive)
same,GI50,K562,> 100 µM (inactive)
same,GI50,COLO 205,> 100 µM (inactive)
same,GI50,HOP-92,> 100 µM (inactive)
